# Source: patent US6642411B1, “Compounds and compositions for delivering active agents” (Emisphere Technologies, Inc., priority 1998, dated 2003)
# Read-outs that look alike come from different tables or passages of the source.
# Experiment: Solubility of the carrier compound
# Assay type: physicochemical
"solubility (aqueous NaOH solution, aqueous buffer, thermodynamic from solid, 200 mg+350 μl 2N NaOH+650 μl H2O, pH 7.67, read-out: Solubility) [mg/mL]","solubility (clear solution, pH=6.85) [mg/mL]",SMILES
200,–,"CC(C(=O)O)c1ccc(NC(=O)c2ccccc2O)cc1 (centres unmarked) [Example 1, 2-(4-(N-salicyloyl)aminophenyl)propionic acid]"
–,200,"CC(C(=O)[O-])c1ccc(NC(=O)c2ccccc2O)cc1.[Na+] (centres unmarked) [Example 2, sodium 2-(4-(N-salicyloyl)aminophenyl)propionate]"
